Experimental data reported in ChEMBL document CHEMBL1159208, “The structures and cytotoxic properties of polyketide peroxides from a Plakortis sponge” (J Nat Prod, 1995).
Activity calls are given as the source filed them. The rule behind the calls is not given here.

System: NCI60
Assay: Cytotoxicity against human NCI60 cells
Assay type: functional, cell-based

Structure (SMILES) | Activity
C[C@]1(CCCCCCCCCCc2ccccc2)C[C@@]2(C)OC(=O)C[C@H]2O1 | inactive
C[C@]1(CCCCCCCCc2ccccc2)CC[C@](C)(CCC(=O)O)OO1 | inactive
